Source: patent US11098034B2, “Pyrazolyl substituted carbonic acid derivatives as modulators of the prostacyclin (PGI2) receptor useful for the treatment of disorders related thereto” (Arena Pharmaceuticals, Inc., priority 2008, dated 2021)

Tested on: MCT-induced pulmonary arterial hypertension in rat
Test: Rat monocrotaline model of pulmonary arterial hypertension
Assay type: in vivo
Settings: male Wistar rats, MCT 60 mg/kg s.c.; test compound 30 mg/kg oral gavage twice a day for 21 days; heart weights Day 22
Description: Animals: Male Wistar rats (100-150 g at start of study) (Charles River Laboratories, Wilmington, Mass.) were housed two per cage and maintained in a humidity—(40-60%) and temperature—(68-72° F.) controlled facility on a 12 hr:12 hr light/dark cycle (lights on at 6:30 am) with free access to food (Harlan Teklad, Orange Calif., Rodent Diet 8604) and water. Rats were allowed one week of habituation to the animal facility before testing.
Rat monocrotaline model: The rat monocrotaline (MCT) model is a standard and well-accepted model of pulmonary arterial hypertension. MCT induces acute pulmonary endothelial damage associated with pulmonary vascular inflammation. […]
Rats were randomly given a single subcutaneous injection of either 60 mg/kg MCT (Sigma, St. Louis, Mo.) or 0.9% saline (sham) and assigned to receive oral administration of 20% hydroxypropyl beta-cyclodextrin (vehicle) or test compound (30 mg/kg; FIGS. 1 and 2). […] Heart chamber weights were measured on Day 22. […] The ratio of right ventricular (RV) weight to left ventricle plus septum (LV+S) weight (this ratio is indicated as “RV/(LV+S)” in FIGS. 1 and 2) was calculated as an index of the hypertrophic response to the induced pulmonary arterial hypertension and, as such, as an index of a test compound's therapeutic efficacy for pulmonary arterial hypertension.

| Compound | hypertrophic response to the induced pulmonary arterial hypertension, RV/(LV+S) |
| --- | --- |
| COc1cccc(-c2c(-c3ccccc3)nn(C[C@H]3CC[C@@H](COCC(=O)O)CC3)c2C)c1 [Compound 14, 2-(((1s,4s)-4-((4-(3-Methoxyphenyl)-5-methyl-3-phenyl-1H-pyrazol-1-yl)methyl)cyclohexyl)methoxy)acetic Acid] | inhibited the hypertrophic response |
| COc1cccc(-c2c(-c3ccccc3)nn(C[C@H]3CC[C@@H](COCC(=O)O)CC3)c2SC)c1 [Compound 31, 2-(((1s,4s)-4-((4-(3-Methoxyphenyl)-5-(methylthio)-3-phenyl-1H-pyrazol-1-yl)methyl)cyclohexyl)methoxy)acetic Acid] | inhibited the hypertrophic response |
